Each structure is given as a SMILES string.

Test [1] has as its target C-Raf kinase (SEQ. ID NO: 3) (Homo sapiens (Human), UniProt P04049, Y340D/Y341D). The test is described as follows: Biochemical Assay for C-Raf (1). Particulars: Table J, assay version (1); read-out: CRAF (1) IC50. The essentials:
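IC50 values come from a four-parameter fit of percent inhibition, using the reaction rate over 4–5 h of a 6 h continuous 340 nm read at 30 °C. The enzyme mix was C-Raf 0.43 nM, MEK substrate 30.1 nM and ATP 1 mM, in a PK/LDH NADH-coupled format in Tris pH 7.5 with 1% DMSO.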

A further test deals with Miapaca-2 cells. The test is described as follows: MiaPaca-2 Cell Proliferation Assay (1). It counts as cell-based. The conditions noted are these: Homo sapiens, MIA PaCa-2, single agent, read-out: MiaPaca2 (1) IC50. The essentials: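 Resazurin was added after compound exposure and incubated 5-6 h, then fluorescence read at 540 nm excitation and 600 nm emission to give IC50.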

Test [2] deals with B-Raf kinase (SEQ. ID NO: 2) (Homo sapiens (Human), UniProt P15056). Briefly: Biochemical Assay for B-Raf (1). The conditions noted are these: Table J, assay version (1); read-out: BRAF (1) IC50. The essentials:
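IC50 derived by four-parameter sigmoidal fit of percent inhibition, normalised to uninhibited and reference-inhibitor controls, using reaction rates over 4–5 h. Coupled spectrophotometric readout (NADH loss at 340 nm, 6 h, 30° C.); 1 mM ATP, 30.1 nM MEK, 0.13 nM B-Raf, pH 7.5 Tris buffer, 1% DMSO.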

A further test concerns H2405 cells. Briefly: H2405 Cell Proliferation Assay (1). It counts as cell-based. The conditions noted are these: Homo sapiens, NCI-H2405. The essentials: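 Viability was read by resazurin reduction (ex 540 nm, em 600 nm; 5-6 h with 40 μL of 440 μM stock) after 67-72 h compound exposure at 37 °C.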

C-Raf kinase (SEQ. ID NO: 3), sequence (P04049 307-648 Y340D/Y341D): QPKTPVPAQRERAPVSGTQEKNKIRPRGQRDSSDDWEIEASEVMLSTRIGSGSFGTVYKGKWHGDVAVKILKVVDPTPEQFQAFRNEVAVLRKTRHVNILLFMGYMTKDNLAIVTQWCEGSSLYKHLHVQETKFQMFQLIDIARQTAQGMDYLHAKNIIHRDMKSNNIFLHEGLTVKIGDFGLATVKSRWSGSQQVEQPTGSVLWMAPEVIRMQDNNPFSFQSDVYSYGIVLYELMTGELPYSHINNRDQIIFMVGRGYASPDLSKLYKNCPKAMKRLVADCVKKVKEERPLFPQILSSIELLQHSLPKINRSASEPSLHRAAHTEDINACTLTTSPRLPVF
B-Raf kinase (SEQ. ID NO: 2), sequence (P15056 416-766): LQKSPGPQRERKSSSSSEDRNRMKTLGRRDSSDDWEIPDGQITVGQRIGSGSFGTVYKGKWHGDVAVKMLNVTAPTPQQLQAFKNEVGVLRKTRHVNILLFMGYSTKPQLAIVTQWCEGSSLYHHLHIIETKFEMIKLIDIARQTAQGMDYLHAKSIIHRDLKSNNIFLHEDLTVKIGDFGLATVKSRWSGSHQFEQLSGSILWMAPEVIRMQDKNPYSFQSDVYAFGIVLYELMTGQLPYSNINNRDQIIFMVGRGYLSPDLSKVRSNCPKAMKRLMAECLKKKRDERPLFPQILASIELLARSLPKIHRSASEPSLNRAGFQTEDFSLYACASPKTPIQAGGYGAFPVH

For the compound `COC(=O)Nc1cc(-c2cnnc(-c3cc(NC(=O)c4ccnc(C(C)(C)C#N)c4)cnc3C)c2)ccn1` [Example 306], the 50% inhibitory concentration (IC50) is 100 to 500 nM in test [1], 1000 to 10000 nM with Miapaca-2 cells, 100 to 500 nM in test [2] and 1000 to 10000 nM in the test on H2405 cells.
For the compound `Cc1ccc(NC(=O)c2cnnc(C3CC3)c2)cc1-c1cccc(-c2cc(NC(=O)C3CC3)ncn2)c1` [Example 284], the IC50 in test [1] is at most 100 nM; in the test on Miapaca-2 cells, 1000 to 10000 nM; in test [2] it was at most 100 nM; with H2405 cells it was 500 to 1000 nM.
For the compound `COC(=O)Nc1cc(-c2cccc(-c3cc(NC(=O)c4ccnc(C5CC5)c4)cnc3C)c2)ccn1` [Example 288], the IC50 in test [1] was at most 100 nM; in the test on Miapaca-2 cells it was 1000 to 10000 nM; in test [2], at most 100 nM; in the test on H2405 cells it was 1000 to 10000 nM.
As to `COC(=O)Nc1cc(-c2cnnc(-c3cc(NC(=O)c4ccnc(C(C)(C)C#N)c4)ccc3C)c2)ccn1` [Example 305], the IC50 was at most 100 nM in test [1], 1000 to 10000 nM with Miapaca-2 cells, at most 100 nM in test [2] and 100 to 500 nM in the test on H2405 cells.
In the case of `COC(=O)Nc1nccc(-c2cccc(-c3cc(NC(=O)c4ccnc(C(C)(C)C#N)c4)cnc3C)c2)n1` [Example 290], the IC50 in test [1] is 100 to 500 nM; with Miapaca-2 cells it was 1000 to 10000 nM; in test [2], 500 to 1000 nM; in the test with H2405 cells, 1000 to 10000 nM.
`CNC(=O)c1cc(-c2cc(-c3cc(NC(=O)c4ccnc(C(F)(F)F)c4)ccc3C)cc(C3CC3)n2)ccn1` [Example 27]: the 50% inhibitory concentration (IC50) in test [1] was 100 to 500 nM; in the test with Miapaca-2 cells it was 1000 to 10000 nM; in test [2] it was 100 to 500 nM; in the test on H2405 cells it was at most 100 nM.
For `COC(=O)Nc1cc(-c2cc(-c3cc(NC(=O)c4ccnc(C(C)(C)C#N)c4)cnc3C)ccn2)ccn1` [Example 297], the IC50 was at most 100 nM in test [1], 1000 to 10000 nM in the test with Miapaca-2 cells, at most 100 nM in test [2] and at most 100 nM in the test with H2405 cells.
On to `CNC(=O)c1cc(-c2cnnc(-c3cc(NC(=O)c4ccnc(C(C)(C)F)c4)cnc3C)c2)ccn1` [Example 309], for which the IC50 in test [1] lay within 100 to 500 nM; with Miapaca-2 cells, 1000 to 10000 nM; in test [2] it was 1000 to 10000 nM; with H2405 cells, 1000 to 10000 nM.
For `Cc1ncc(NC(=O)C2CCOC(C)(C)C2)cc1-c1cccc(-c2cc(NC(=O)C3CC3)ncn2)c1` (stereo not shown) [Example 348], the IC50 in test [1] is at most 100 nM; with Miapaca-2 cells it was 1000 to 10000 nM; in test [2], 100 to 500 nM; in the test with H2405 cells it was 1000 to 10000 nM.
Regarding `CC(=O)Nc1cc(-c2cccc(-c3cc(NC(=O)c4ccnc(C(F)(F)F)c4)ccc3C)c2)ncn1` [Example 30], the IC50 was at most 100 nM in test [1], 1000 to 10000 nM with Miapaca-2 cells, at most 100 nM in test [2] and at most 100 nM in the test on H2405 cells.
Regarding `Cc1ncc(NC(=O)c2ccnc(C3CC3)c2)cc1-c1nccc(-c2ccnc(NC(=O)C3CC3)c2)n1` [Example 295], the IC50 is at most 100 nM in test [1], 1000 to 10000 nM in the test with Miapaca-2 cells, at most 100 nM in test [2] and 100 to 500 nM in the test on H2405 cells.
Turning to `Cc1ncc(NC(=O)c2ccnc(C(C)(C)F)c2)cc1-c1cc(-c2ccnc(NC(=O)C3CC3)c2)cnn1` [Example 310], the IC50 is at most 100 nM in test [1], 1000 to 10000 nM in the test on Miapaca-2 cells, at most 100 nM in test [2] and 100 to 500 nM with H2405 cells.
`Cc1ccc(NC(=O)c2ccnc(C(C)(C)C#N)c2)cc1-c1ccnc(-c2ccnc3c2CC(=O)N3)c1` [Example 23]: the IC50 in test [1] was at most 100 nM; in the test with Miapaca-2 cells, 1000 to 10000 nM; in test [2], at most 100 nM; in the test with H2405 cells it was 100 to 500 nM.
On to `Cc1cc(F)c(NC(=O)c2ccnc(C(C)(C)C#N)c2)cc1-c1cc(-c2ccnc(NC(=O)C3CC3)c2)cnn1` [Example 298], for which the IC50 in test [1] was at most 100 nM; in the test with Miapaca-2 cells, 1000 to 10000 nM; in test [2], at most 100 nM; with H2405 cells, 100 to 500 nM.
With `COC(=O)Nc1cc(-c2cc(-c3cc(NC(=O)c4ccnc(C(C)(C)C#N)c4)c(F)cc3C)ccn2)ccn1` [Example 308], the IC50 in test [1] is at most 100 nM; in the test with Miapaca-2 cells, 1000 to 10000 nM; in test [2] it was at most 100 nM; in the test with H2405 cells it was at most 100 nM.
In the case of `Cc1cc(F)c(NC(=O)c2ccnc(C(F)F)c2)cc1-c1ccnc(-c2ccnc(NC(=O)C3CC3)c2)c1` [Example 307], the half-inhibitory concentration (IC50) in test [1] is at most 100 nM; with Miapaca-2 cells it was 1000 to 10000 nM; in test [2], at most 100 nM; in the test with H2405 cells, at most 100 nM.
Take `COC(=O)Nc1cc(-c2cccc(-c3cc(NC(=O)c4ccnc(C(C)(C)C#N)c4)cnc3C)c2)ccn1` [Example 282]: the IC50 in test [1] is at most 100 nM; in the test on Miapaca-2 cells it was 1000 to 10000 nM; in test [2], at most 100 nM; with H2405 cells it was 500 to 1000 nM.
As to `Cc1ncc(NC(=O)c2ccnc(C(C)(C)C#N)c2)cc1-c1cccc(-c2ccnc(C(N)=O)c2)c1` [Example 301], the IC50 in test [1] was at most 100 nM; with Miapaca-2 cells, 1000 to 10000 nM; in test [2], at most 100 nM; in the test with H2405 cells, 100 to 500 nM.
Turning to `COC(=O)Nc1cc(-c2nccc(-c3cc(NC(=O)c4ccnc(C(C)(C)F)c4)c(F)cc3C)n2)ccn1` [Example 304], the IC50 in test [1] is at most 100 nM; in the test on Miapaca-2 cells, 1000 to 10000 nM; in test [2], at most 100 nM; in the test with H2405 cells it was 100 to 500 nM.
Consider `Cc1ncc(NC(=O)c2ccnc(C3CC3)c2)cc1-c1cccc(-c2cc(NC(=O)C3CC3)ncn2)c1` [Example 291], for which the IC50 in test [1] was at most 100 nM; in the test with Miapaca-2 cells it was 1000 to 10000 nM; in test [2] it was at most 100 nM; with H2405 cells, 100 to 500 nM.
For the compound `Cc1ncc(NC(=O)c2cnn(C(C)(C)C)c2)cc1-c1ccnc(-c2ccnc(NC(=O)C3CC3)c2)n1` [Example 283], the IC50 is at most 100 nM in test [1], 1000 to 10000 nM in the test with Miapaca-2 cells, at most 100 nM in test [2] and 100 to 500 nM in the test on H2405 cells.
Turning to `Cc1nc(-c2ccnc(NC(=O)C3CC3)c2)cc(-c2cc(NC(=O)c3ccnc(C4(C#N)CC4)c3)cnc2C)n1` [Example 286], the IC50 in test [1] is at most 100 nM; with Miapaca-2 cells, 1000 to 10000 nM; in test [2], at most 100 nM; in the test on H2405 cells it was 100 to 500 nM.
As to `Cc1ncc(NC(=O)c2cn(C(C)C)nn2)cc1-c1ccnc(-c2ccnc(NC(=O)C3CC3)c2)n1` [Example 281], the half-maximal inhibitory concentration (IC50) in test [1] is at most 100 nM; with Miapaca-2 cells it was 1000 to 10000 nM; in test [2], at most 100 nM; with H2405 cells it was 100 to 500 nM.
Consider `Cc1cc(F)c(NC(=O)c2ccnc(C(C)(C)F)c2)cc1-c1ccnc(-c2ccnc(NC(=O)C3CC3)c2)c1` [Example 300], for which the IC50 is at most 100 nM in test [1], 1000 to 10000 nM in the test on Miapaca-2 cells, at most 100 nM in test [2] and at most 100 nM in the test with H2405 cells.
Take `COC(=O)Nc1cc(-c2cnnc(-c3cc(NC(=O)c4ccnc(C(C)(C)C#N)c4)c(F)cc3C)c2)ccn1` [Example 299]: the IC50 in test [1] was at most 100 nM; in the test with Miapaca-2 cells it was 1000 to 10000 nM; in test [2], at most 100 nM; in the test on H2405 cells, 100 to 500 nM.

For orientation: IC50 means the concentration needed to halve the response being measured.

For the origin of these results see patent US12319655B2, “RAF kinase inhibitors and methods of use thereof” (Deciphera Pharmaceuticals, LLC, priority 2021, dated 2025).
